# Results as given in patent publication US9283222B2 (priority 2006, dated 2016).
# pKi: −log10 of the molar value.
# Target: Recombinant Human Poly(ADP-Ribose) Polymerase (PARP), PARP-1 (Homo sapiens (Human), UniProt P09874)
# Settings: read-out: PARP-1 (Ki); Table 1; text calls the values EC50s
# Sequence of Recombinant Human Poly(ADP-Ribose) Polymerase (PARP), PARP-1 (P09874 whole entry): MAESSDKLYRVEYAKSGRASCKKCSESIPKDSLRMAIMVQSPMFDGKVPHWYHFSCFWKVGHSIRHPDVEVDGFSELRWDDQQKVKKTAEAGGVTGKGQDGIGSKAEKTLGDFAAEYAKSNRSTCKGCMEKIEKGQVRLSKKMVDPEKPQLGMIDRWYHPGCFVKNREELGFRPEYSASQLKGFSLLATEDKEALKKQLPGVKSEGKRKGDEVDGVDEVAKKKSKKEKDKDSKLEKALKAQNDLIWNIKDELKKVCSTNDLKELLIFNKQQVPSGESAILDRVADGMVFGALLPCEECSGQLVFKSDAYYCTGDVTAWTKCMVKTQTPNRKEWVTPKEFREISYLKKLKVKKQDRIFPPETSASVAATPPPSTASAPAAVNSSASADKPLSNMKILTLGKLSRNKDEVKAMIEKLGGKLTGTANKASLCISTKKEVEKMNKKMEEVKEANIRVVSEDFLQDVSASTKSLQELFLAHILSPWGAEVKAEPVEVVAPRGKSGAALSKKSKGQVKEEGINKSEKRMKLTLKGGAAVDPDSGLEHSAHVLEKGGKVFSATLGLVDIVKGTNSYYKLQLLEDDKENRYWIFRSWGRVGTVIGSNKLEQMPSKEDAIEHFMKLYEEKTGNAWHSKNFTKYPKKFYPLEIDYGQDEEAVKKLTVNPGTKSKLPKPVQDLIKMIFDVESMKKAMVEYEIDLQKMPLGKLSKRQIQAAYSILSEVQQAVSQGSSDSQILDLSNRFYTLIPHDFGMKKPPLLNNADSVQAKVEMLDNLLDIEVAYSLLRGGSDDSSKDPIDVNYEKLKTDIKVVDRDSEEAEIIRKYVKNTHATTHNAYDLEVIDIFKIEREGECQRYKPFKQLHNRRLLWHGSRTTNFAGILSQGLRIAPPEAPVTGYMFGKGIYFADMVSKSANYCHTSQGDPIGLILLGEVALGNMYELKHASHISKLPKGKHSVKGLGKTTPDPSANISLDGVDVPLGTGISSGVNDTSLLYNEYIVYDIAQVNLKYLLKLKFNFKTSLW
row,Structure (SMILES),pKi
1,"O=C(c1cnc2ccccc2c1)N1CCN(C(=O)c2cc(Cc3n[nH]c(=O)c4c3NCCC4)ccc2F)CC1 [Example 657, 8-(4-fluoro-3-{[4-(quinolin-3-ylcarbonyl)piperazin-1-yl]carbonyl}benzyl)-2,3,4,6-tetrahydropyrido[2,3-d]pyridazin-5(1H)-one]",9.10
2,"O=C(c1cc(Cc2n[nH]c(=O)c3c2NCCC3)ccc1F)N1CCN(C(=O)c2cccnc2Cl)CC1 [Example 658, 8-[3-({4-[(2-chloropyridin-3-yl)carbonyl]piperazin-1-yl}carbonyl)-4-fluorobenzyl]-2,3,4,6-tetrahydropyrido[2,3-d]pyridazin-5(1H)-one]",9.00
3,"O=C(OCc1ccccc1)N1CCCN(C(=O)c2cc(Cc3n[nH]c(=O)c4c3NCCC4)ccc2F)CC1 [Example 659, benzyl 4-{2-fluoro-5-[(5-oxo-1,2,3,4,5,6-hexahydropyrido[2,3-d]pyridazin-8-yl)methyl]benzoyl}-1,4-diazepane-1-carboxylate]",8.60
4,"O=C(c1ccncc1)N1CCN(C(=O)c2cc(Cc3n[nH]c(=O)c4c3NCCC4)ccc2F)CC1 [Example 660, 8-{4-fluoro-3-[(4-isonicotinoylpiperazin-1-yl)carbonyl]benzyl}-2,3,4,6-tetrahydropyrido[2,3-d]pyridazin-5(1H)-one]",8.85
5,"O=C(c1cccnc1)N1CCN(C(=O)c2cc(Cc3n[nH]c(=O)c4c3NCCC4)ccc2F)CC1 [Example 661, 8-(4-fluoro-3-{[4-(pyridin-3-ylcarbonyl)piperazin-1-yl]carbonyl}benzyl)-2,3,4,6-tetrahydropyrido[2,3-d]pyridazin-5(1H)-one]",8.82
6,"O=C(c1cnccn1)N1CCN(C(=O)c2cc(Cc3n[nH]c(=O)c4c3NCCC4)ccc2F)CC1 [Example 662, 8-(4-fluoro-3-{[4-(pyrazin-2-ylcarbonyl)piperazin-1-yl]carbonyl}benzyl)-2,3,4,6-tetrahydropyrido[2,3-d]pyridazin-5(1H)-one]",8.82
7,"O=C(c1ccc2[nH]cnc2c1)N1CCN(C(=O)c2cc(Cc3n[nH]c(=O)c4c3NCCC4)ccc2F)CC1 [Example 663, 8-(3-{[4-(1H-benzimidazol-5-ylcarbonyl)piperazin-1-yl]carbonyl}-4-fluorobenzyl)-2,3,4,6-tetrahydropyrido[2,3-d]pyridazin-5(1H)-one]",9.00
8,"O=C(c1cncnc1)N1CCN(C(=O)c2cc(Cc3n[nH]c(=O)c4c3NCCC4)ccc2F)CC1 [Example 664, 8-(4-fluoro-3-{[4-(pyrimidin-5-ylcarbonyl)piperazin-1-yl]carbonyl}benzyl)-2,3,4,6-tetrahydropyrido[2,3-d]pyridazin-5(1H)-one]",8.89
9,"O=C(c1ccccn1)N1CCN(C(=O)c2cc(Cc3n[nH]c(=O)c4c3NCCC4)ccc2F)CC1 [Example 665, 8-(4-fluoro-3-{[4-(pyridin-2-ylcarbonyl)piperazin-1-yl]carbonyl}benzyl)-2,3,4,6-tetrahydropyrido[2,3-d]pyridazin-5(1H)-one]",8.96
10,"CCOC(=O)N1CCN(C(=O)c2cc(Cc3n[nH]c(=O)c4c3NCCC4)ccc2F)CC1 [Example 666, ethyl 4-{2-fluoro-5-[(5-oxo-1,2,3,4,5,6-hexahydropyrido[2,3-d]pyridazin-8-yl)methyl]benzoyl}piperazine-1-carboxylate]",8.82
11,"CC1(C)C(=O)NCCN1C(=O)c1cc(Cc2n[nH]c(=O)c3c2NCCC3)ccc1F [Example 667, 8-{3-[(2,2-dimethyl-3-oxopiperazin-1-yl)carbonyl]-4-fluorobenzyl}-2,3,4,6-tetrahydropyrido[2,3-d]pyridazin-5(1H)-one]",7.70
12,"C[C@@H]1CN(C(=O)c2ccccc2)CCN1C(=O)c1cc(Cc2n[nH]c(=O)c3c2CCCC3)ccc1F [Example 668, 4-(3-{[(2R)-4-benzoyl-2-methylpiperazin-1-yl]carbonyl}-4-fluorobenzyl)-5,6,7,8-tetrahydrophthalazin-1(2H)-one]",8.72
13,"O=C(c1cc(Cc2n[nH]c(=O)c3c2CCCC3)ccc1F)N1CCN(c2ncncn2)CC1 [Example 669, 4-(4-fluoro-3-{[4-(1,3,5-triazin-2-yl)piperazin-1-yl]carbonyl}benzyl)-5,6,7,8-tetrahydrophthalazin-1(2H)-one]",8.92
14,"O=C(c1cscn1)N1CCN(C(=O)c2cc(Cc3n[nH]c(=O)c4c3CCCC4)ccc2F)CC1 [Example 674, 4-(4-fluoro-3-{[4-(1,3-thiazol-4-ylcarbonyl)piperazin-1-yl]carbonyl}benzyl)-5,6,7,8-tetrahydrophthalazin-1(2H)-one]",8.96
15,"O=C1CCC(C(=O)N2CCN(C(=O)c3cc(Cc4n[nH]c(=O)c5c4CCCC5)ccc3F)CC2)N1 (centres unmarked) [Example 675, 4-[4-fluoro-3-({4-[(5-oxopyrrolidin-2-yl)carbonyl]piperazin-1-yl}carbonyl)benzyl]-5,6,7,8-tetrahydrophthalazin-1(2H)-one]",8.92
16,"CC1(C)SCN[C@@H]1C(=O)N1CCN(C(=O)c2cc(Cc3n[nH]c(=O)c4c3CCCC4)ccc2F)CC1 [Example 677, 4-{3-[(4-{[(4R)-5,5-dimethyl-1,3-thiazolidin-4-yl]carbonyl}piperazin-1-yl)carbonyl]-4-fluorobenzyl}-5,6,7,8-tetrahydrophthalazin-1(2H)-one]",8.82
17,"O=C(c1cc[nH]n1)N1CCN(C(=O)c2cc(Cc3n[nH]c(=O)c4c3CCCC4)ccc2F)CC1 [Example 678, 4-(4-fluoro-3-{[4-(1H-pyrazol-3-ylcarbonyl)piperazin-1-yl]carbonyl}benzyl)-5,6,7,8-tetrahydrophthalazin-1(2H)-one]",8.96
18,"O=C(c1cnccn1)N1CCN(C(=O)c2cc(Cc3n[nH]c(=O)c4c3CCCC4)ccc2F)CC1 [Example 679, 4-(4-fluoro-3-{[4-(pyrazin-2-ylcarbonyl)piperazin-1-yl]carbonyl}benzyl)-5,6,7,8-tetrahydrophthalazin-1(2H)-one]",8.85
19,"O=C(c1ccc2[nH]cnc2c1)N1CCN(C(=O)c2cc(Cc3n[nH]c(=O)c4c3CCCC4)ccc2F)CC1 [Example 680, 4-(3-{[4-(1H-benzimidazol-5-ylcarbonyl)piperazin-1-yl]carbonyl}-4-fluorobenzyl)-5,6,7,8-tetrahydrophthalazin-1(2H)-one]",8.96
20,"O=C(c1ccncc1)N1CCCN(C(=O)c2cc(Cc3n[nH]c(=O)c4c3NCCC4)ccc2F)CC1 [Example 682, 8-{4-fluoro-3-[(4-isonicotinoyl-1,4-diazepan-1-yl)carbonyl]benzyl}-2,3,4,6-tetrahydropyrido[2,3-d]pyridazin-5(1H)-one]",8.62
21,"O=C(c1cccnc1)N1CCCN(C(=O)c2cc(Cc3n[nH]c(=O)c4c3NCCC4)ccc2F)CC1 [Example 683, 8-(4-fluoro-3-{[4-(pyridin-3-ylcarbonyl)-1,4-diazepan-1-yl]carbonyl}benzyl)-2,3,4,6-tetrahydropyrido[2,3-d]pyridazin-5(1H)-one]",8.59
22,"O=C(c1ccccn1)N1CCCN(C(=O)c2cc(Cc3n[nH]c(=O)c4c3NCCC4)ccc2F)CC1 [Example 684, 8-(4-fluoro-3-{[4-(pyridin-2-ylcarbonyl)-1,4-diazepan-1-yl]carbonyl}benzyl)-2,3,4,6-tetrahydropyrido[2,3-d]pyridazin-5(1H)-one]",8.55
23,"O=C(c1cncnc1)N1CCCN(C(=O)c2cc(Cc3n[nH]c(=O)c4c3NCCC4)ccc2F)CC1 [Example 685, 8-(4-fluoro-3-{[4-(pyrimidin-5-ylcarbonyl)-1,4-diazepan-1-yl]carbonyl}benzyl)-2,3,4,6-tetrahydropyrido[2,3-d]pyridazin-5(1H)-one]",8.66
